Patent US20140011822A1, “METHODS AND MATERIALS FOR REDUCING VENOUS STENOSIS FORMATION OF AN ARTERIOVENOUS FISTULA OR GRAFT” (priority 2011, published 2014)

Assays:
CTGF = test: RT-PCR for CTGF at outflow vein, simvastatin; assay type: in vivo, mice; settings: day 14
Description: (§1) Animals were housed at 22° C. temperature, 41% relative humidity, and 12-/12-hour light/dark cycles. Animals were allowed access to water and food ad libitum. […] Sixty-eight male C57BL/6 mice (Jackson Laboratories, Bar Harbor, Me.) weighing 25-30 grams were used for the present study (FIG. 18). Chronic kidney disease was created by surgical removal of the right kidney accompanied by ligation of the arterial blood supply to the upper pole of the left kidney as described elsewhere (Misra et al., J. Vasc. Interv. Radiol., 21:1255-1261 (2010); see, also, FIG. 18A). Three weeks after nephrectomy, the animals were started on simvastatin (40 mg/kg administered i.p. three times per week) or PBS (equal amount of volume used for simvastatin i.p. controls). Simvastatin was prepared as described elsewhere (Wilson et al., Arterioscler Thromb. Vasc. Biol., 21:122-128 (2001)). […] Serum BUN and creatinine were measured by removing blood from the tail vein at baseline (before nephrectomy), at AVF creation, and at the time of sacrifice. […]
(§2) Expression for the gene of interest was determined using RT-PCR analysis as described elsewhere (Misra et al., J. Vasc. Interv. Radiol., 21:1255-1261 (2010)). […]

VEGF-A [1] = test: RT-PCR for VEGF-A at outflow vein, simvastatin; assay type: in vivo, mice
Description: (§3) Animals were housed at 22° C. temperature, 41% relative humidity, and 12-/12-hour light/dark cycles. Animals were allowed access to water and food ad libitum. […] Sixty-eight male C57BL/6 mice (Jackson Laboratories, Bar Harbor, Me.) weighing 25-30 grams were used for the present study (FIG. 18). Chronic kidney disease was created by surgical removal of the right kidney accompanied by ligation of the arterial blood supply to the upper pole of the left kidney as described elsewhere (Misra et al., J. Vasc. Interv. Radiol., 21:1255-1261 (2010); see, also, FIG. 18A). Three weeks after nephrectomy, the animals were started on simvastatin (40 mg/kg administered i.p. three times per week) or PBS (equal amount of volume used for simvastatin i.p. controls). Simvastatin was prepared as described elsewhere (Wilson et al., Arterioscler Thromb. Vasc. Biol., 21:122-128 (2001)). A week later, an AVF was created by connecting the right carotid artery to the ipsilateral jugular vein (FIG. 18B; see, also, Misra et al., J. Vasc. Interv. Radiol., 21:1255-1261 (2010) and Yang et al., J. Vasc. Interv. Radiol., 20:946-950 (2009)). Animals were sacrificed at day 7, day 14, and day 28 following AVF placement for real time polymerase chain reaction (RT-PCR) and histomorphometric analyses (FIG. 18C). Serum BUN and creatinine were measured by removing blood from the tail vein at baseline (before nephrectomy), at AVF creation, and at the time of sacrifice. […] These animals were started on simvastatin (40 mg/kg i.p.) or PBS (equal amount of volume i.p.) every other day one week before AVF placement and then sacrificed four weeks after fistula placement for histomorphometric analysis.
(§4) The tissue was stored in RNA stabilizing reagent (Qiagen, Gaithersburg, Md.) as per the manufacturer's guidelines. To isolate the RNA, the specimens were homogenized, and total RNA was isolated using RNeasy mini kit (Qiagen) (Misra et al., J. Vasc. Interv. Radiol., 21:1255-1261 (2010); and Yang et al., J. Vasc. Interv. Radiol., 20:946-950 (2009)).
(§5) Expression for the gene of interest was determined using RT-PCR analysis as described elsewhere (Misra et al., J. Vasc. Interv. Radiol., 21:1255-1261 (2010)). Commercial PCR primers for the gene of interest were purchased from SA Biosciences (Frederick, Md.).

α-SMA [2] = test: Confocal microscopy for α-SMA plus phalloidin in NIH 3T3 cells, simvastatin; assay type: cell-based
Description: (§6) One hundred thousand NIH 3T3 cells were treated with simvastatin (1 μM, 5 μM, or 10 μM) or controls and made hypoxic for 24 hours as described elsewhere (Misra et al., J. Vasc. Interv. Radiol., 21:896-902 (2010)).

α-SMA [3] = test: α-SMA staining of outflow vein, simvastatin; assay type: in vivo, mice; settings: for average reduction of α-SMA density: vs control
Description: Multiple serial four-micrometer sections were stained and analyzed. Cellular proliferation was determined by staining for Ki-67 on sections removed from the outflow vein for simvastatin treated vessels or control groups. Smooth muscle density (α-SMA) or proliferation index (Ki-67) was determined by staining on sections removed from the outflow vein by performing quantification at the different time points. Immunohistochemistry for Ki-67 and α-SMA was performed on paraffin-embedded sections from the outflow vein after transfection with either simvastatin or controls using the Vectastain Elite ABC system (Vector Laboratories, Burlingame, Calif., USA). The following antibodies were used: mouse monoclonal antibody Ki-67 (DAKO, Carpentaria, Calif.; 1:400) or rabbit polyclonal antibody to mouse for α-SMA (Abcam, Cambridge, Mass.; 1:400).
Morphometric analysis was performed as described elsewhere (Misra et al., Kidney Int., 68:2890-2900 (2005); and Misra et al., Am. J. Physiol. Heart Circ. Physiol., 294:H2219-2230 (2008)). Briefly, the outflow vein was sectioned into multiple contiguous 4-μm paraffin embedded sections. Typically, 2 to 3 sections per animal for each group (simvastatin and controls) and time point (day 14 and day 28) were photographed and then quantified using KS 400 (Carl Zeiss, Inc., Thornwood, N.Y.) semiquantitative program.

[4] = test system: hypoxic changes in the outflow vein; test: Hypoxyprobe staining of outflow vein, simvastatin; assay type: in vivo, mice; settings: for average reduction of hypoxyprobe staining: vs control
Description: Hypoxic changes were assessed in the outflow vein of simvastatin treated vessels or control groups using Hypoxyprobe™-1 (EMD Millipore, Billerica, Mass.), a substituted derivative of pimonidazole hydrochloride. Hypoxyprobe™-1 upon activation forms stable covalent adducts with thiol groups of polypeptides and amino acids of hypoxic tissue. Mice were injected with 60 mg/kg Hypoxyprobe™-1 i.p. Thirty minutes following injection, mice were sacrificed, and outflow veins were dissected and fixed as specified for histological analysis. Four-micrometer thick paraffin embedded sections were stained with the anti-hypoxyprobe-1 Ab as per the manufacturer's directions.

NIH 3T3 cells = test: Cell migration (matrigel invasion) assay in NIH 3T3 cells, simvastatin; assay type: cell-based
Description: as §6
NIH 3T3 cells were synchronized for 24 hours in serum free media. Next, one hundred thousand NIH 3T3 cells were treated with simvastatin or controls and seeded in 8-micron trans-wells that were pre-coated with low growth factor matrigel in a serum free media. The complete media was supplemented under the trans-well and incubated for 6 hours at 37° C. After 6 hours, trans-wells were washed with PBS and fixed with paraformaldehye (4% v/v). Finally, trans-wells were stained with bromophenol (0.1%) solution. The cells from upper side were removed with cotton tip applicators. The cells at bottom side were counted for analysis.

VEGF-A [5] = test: RT-PCR for VEGF-A in kidneys, simvastatin; assay type: in vivo, mice
Description: as §1, §2

HIF-1α = test: RT-PCR for HIF-1α at outflow vein, simvastatin; assay type: in vivo, mice; settings: for average reduction of HIF-1α gene expression: vs control
Description: as §3, §4, §5

CCC(C)(C)C(=O)O[C@H]1C[C@@H](C)C=C2C=C[C@H](C)[C@H](CC[C@@H]3C[C@@H](O)CC(=O)O3)[C@H]21 [simvastatin]
mean gene expression of CTGF (CTGF): 0.29±0.05 | average reduction of CTGF gene expression (CTGF; vs control): 45% | mean gene expression of VEGF-A (VEGF-A [1]; day 7): 0.58±0.06 | Average reduction of VEGF-A gene expression (VEGF-A [1]; day 7, vs control): 44% | mean gene expression of VEGF-A (VEGF-A [1]; day 14): 0.51±0.1 | Average reduction of VEGF-A gene expression (VEGF-A [1]; day 14, vs control): 49% | average reduction in α-SMA plus phalloidin staining (α-SMA [2]; 5 μM, 24 hours of hypoxia): 52% | average reduction in α-SMA plus phalloidin staining (α-SMA [2]; 5 μM, 24 hours of normoxia): 62% | average reduction in α-SMA plus phalloidin staining (α-SMA [2]; 10 μM, 24 hours of hypoxia): 82% | average reduction in α-SMA plus phalloidin staining (α-SMA [2]; 10 μM, 24 hours of normoxia): 94% | average α-SMA density (α-SMA [3]; day 14): 24±1.2 | average reduction of α-SMA density (α-SMA [3]; day 14): 46% | average α-SMA density (α-SMA [3]; day 28): 8.4±1.6 | average reduction of α-SMA density (α-SMA [3]; day 28): 87% | average α-SMA density (α-SMA [3]; day 28 normal): 28.4±1.6 | average reduction of α-SMA density (α-SMA [3]; day 28 normal): 32% | average density of hypoxyprobe staining ([4]; day 14): 18.33±2.06 | average reduction of hypoxyprobe staining ([4]; day 14): 53% | average density of hypoxyprobe staining ([4]; day 28): 13.01±4.62 | average reduction of hypoxyprobe staining ([4]; day 28): 70% | reduction of hypoxyprobe staining ([4]; day 28 normal, vs control (P=0.0103)): 72% | average reduction of migratory capacity (NIH 3T3 cells; 5 μM, 24 hours hypoxia): 47% | average reduction of migratory capacity (NIH 3T3 cells; 5 μM, 24 hours normoxia): 32% | average reduction of migratory capacity (NIH 3T3 cells; 10 μM, 24 hours hypoxia): 62% | average reduction of migratory capacity (NIH 3T3 cells; 10 μM, 24 hours normoxia): 50% | average gene expression of VEGF-A (VEGF-A [5]; day 28): 1±0.02 | Average reduction of VEGF-A gene expression (VEGF-A [5]; day 28, vs control): 24% | mean gene expression of HIF-1α (HIF-1α; day 7): 0.45±0.12 | average reduction of HIF-1α gene expression (HIF-1α; day 7): 54% | mean gene expression of HIF-1α (HIF-1α; day 14): 0.34±0.04 | average reduction of HIF-1α gene expression (HIF-1α; day 14): 54%
